According to patent US10501436B2, “Compounds and methods of use” (Medivation Technologies LLC, priority 2014, dated 2019):

Legend:
ALK2 (ACVR1) = ALK2 (ACVR1) (Homo sapiens (Human), UniProt Q04771); assay: In vitro kinase assay (33P ATP), ALK2; type: biochemical; conditions: 10 μM ATP; read-out: Inhibition of ALK2 (IC50 μM)
[1] = Plasma and brain concentrations at 0.5 and 1 h; type: in vivo, mice; conditions: PO
p-SMAD2 = p-SMAD2 inhibition, Western Blot Analysis in MDA-MB-231 cells treated with TGFβ; type: cell-based; conditions: Homo sapiens, TGFβ 2 ng/mL, samples run in triplicate; for inhibition at 0.1 µM: 0.1 μM compound, read-out: Average p-SMAD2 inhibition @ 0.1 μM (% Inh); for inhibition at 0.5 µM: 0.5 μM compound, read-out: Average p-SMAD2 inhibition @ 0.5 μM (% Inh)
[2] = Pharmacokinetics and bioavailability in male mice after a single dose; type: in vivo

ALK2 (ACVR1), sequence (Q04771 21-509): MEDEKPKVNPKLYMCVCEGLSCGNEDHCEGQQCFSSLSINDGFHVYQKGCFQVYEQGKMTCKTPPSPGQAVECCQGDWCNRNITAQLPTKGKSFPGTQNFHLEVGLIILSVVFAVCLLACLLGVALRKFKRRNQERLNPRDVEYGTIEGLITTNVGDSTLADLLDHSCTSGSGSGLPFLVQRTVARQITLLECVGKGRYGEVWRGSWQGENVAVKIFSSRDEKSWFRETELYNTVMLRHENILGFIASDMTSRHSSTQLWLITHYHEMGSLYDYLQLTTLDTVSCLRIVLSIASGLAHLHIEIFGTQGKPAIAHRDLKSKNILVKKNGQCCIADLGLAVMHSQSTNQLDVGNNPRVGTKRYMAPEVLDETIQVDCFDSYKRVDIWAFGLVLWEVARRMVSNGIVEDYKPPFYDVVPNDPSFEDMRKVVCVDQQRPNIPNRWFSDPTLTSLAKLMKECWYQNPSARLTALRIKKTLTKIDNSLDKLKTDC

## C=C(C)c1cnc(-c2cc(Cl)ccc2F)cc1Nc1ccncc1C(=O)N[C@H](C)CO [Compound 7b, (2R)-4-[[2-(5-chloro-2-fluoro-phenyl)-5-isopropenyl-4-pyridyl]amino]-N-(2-hydroxy-1-methyl-ethyl)pyridine-3-carboxamide]
ALK2 (ACVR1)
  IC50: > 100 µM

## CC(C)c1cnc(-c2cc(Cl)ccc2F)cc1Nc1ccncc1C(=O)NCCN [Compound 19, N-(2-aminoethyl)-4-[[2-(5-chloro-2-fluoro-phenyl)-5-isopropyl-4-pyridyl]amino]pyridine-3-carboxamide]
[1]; 0.5 h
  Brain Concentration (μM): BLQ
[1]; 1 h
  Brain Concentration (μM): BLQ

## CC(C)c1cnc(-c2cc(Cl)ccc2F)cc1Nc1n[nH]cc1C(=O)NC[C@H](C)O (single isomer, unassigned) [Compound 21a, 3-[[2-(5-chloro-2-fluoro-phenyl)-5-isopropyl-4-pyridyl]amino]-N-(2-hydroxypropyl)-1H-pyrazole-4-carboxamide]
p-SMAD2
  inhibition at 0.1 µM: 4.67%
  inhibition at 0.5 µM: 7.67%

## COc1cnc(-c2cc(Cl)ccc2F)cc1Nc1ccncc1C(=O)NCC(C)O (single isomer, unassigned) [Compound 13a]
ALK2 (ACVR1)
  IC50: > 100 µM

## C=C(C)c1cnc(-c2cc(Cl)ccc2F)cc1Nc1n[nH]cc1C(=O)NC[C@H](C)O [Compound 20a, (S)-3-[[2-(5-chloro-2-fluoro-phenyl)-5-isopropenyl-4-pyridyl]amino]-N-(2-hydroxypropyl)-1H-pyrazole-4-carboxamide]
p-SMAD2
  inhibition at 0.1 µM: 0%
  inhibition at 0.5 µM: 3.67%

## C=C(C)c1cnc(-c2cc(Cl)ccc2F)cc1Nc1ccncc1C(=O)NCC(C)O (single isomer, unassigned) [Compound 3a]
[2]; Intravenous, 2 mg/kg
  AUClast: 2.56 µM·h
  CL: 12.8 mL/min/kg
[2]; Oral, 10 mg/kg
  AUClast: 10.5 µM·h

## C=C(C)c1c(Nc2ccncc2C(=O)NCC(C)O)cc(-c2cc(Cl)ccc2F)nc1N (single isomer, unassigned) [Compound 23a]
[2]; Intravenous, 2 mg/kg
  AUClast: 1.11 µM·h
  CL: 66 mL/min/kg
[2]; Oral, 10 mg/kg
  AUClast: 0.907 µM·h

## C=Cc1cnc(-c2cc(Cl)ccc2F)cc1Nc1ccncc1C(=O)NC[C@H](C)O [Compound 10a, (S)-4-(2-(5-chloro-2-fluorophenyl)-5-vinylpyridin-4-ylamino)-N-(2-hydroxypropyl) nicotinamide]
p-SMAD2
  inhibition at 0.5 µM: 64.3%

## CC(C)c1cnc(-c2cc(Cl)ccc2F)cc1Nc1ccncc1CNC[C@H](C)O [Compound 5a, (S)-1-((4-(2-(5-chloro-2-fluorophenyl)-5-isopropylpyridin-4-ylamino)pyridin-3-yl)methylamino)propan-2-ol]
p-SMAD2
  inhibition at 0.1 µM: 14.3%
  inhibition at 0.5 µM: 41.3%
